pIC50, pKd: −log10 of the molar value.
Experiments:
TYK2 JH2 = target: T1, TYK2 JH2 (Homo sapiens, UniProt P29597); assay: TYK2 JH2 binding assay (KINOMEscan KdELECT competitive binding); details: TYK2 JH2 domain, KINOMEscan KdELECT (Assay A); read-out: Biochemical TYK2_DiscoverX_JH2_BND_Kd
T1 construct: purchased DiscoverX (KINOMEscan KdELECT service); host or cells: E. coli BL21-derived (T7 phage display) or HEK-293
Summary of the method: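 Kd values come from qPCR measurement of kinase retained on an immobilized-ligand resin after 1 h room-temperature competition with compound in an 11-point, 3-fold series.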

[1] = test system: JAK1/TYK2 pSTAT5 (Tyr694/699) in THP-1 cell line; assay: IFNa-stimulated JAK1/TYK2 pSTAT5 (Tyr694/699) inhibition cellular assay, AlphaLISA; assay type: cell-based; details: Homo sapiens; THP-1 cells, IFNa-stimulated, AlphaLISA (Assay B); read-out: Cellular_THP1_IFNa-pSTATS_TYK2
Summary of the method: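 An eight-point 6-fold titration of compound (0.04–10000 nM final) is given to THP-1 cells for 1 h before 30 min of IFNa exposure. Phospho-STAT5 is read by AlphaLISA at 615 nm. IC50 values are derived by logistic regression with bottom set to 0 and Hill slope set to −1.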

T1 sequence (P29597 589-875 limits assumed): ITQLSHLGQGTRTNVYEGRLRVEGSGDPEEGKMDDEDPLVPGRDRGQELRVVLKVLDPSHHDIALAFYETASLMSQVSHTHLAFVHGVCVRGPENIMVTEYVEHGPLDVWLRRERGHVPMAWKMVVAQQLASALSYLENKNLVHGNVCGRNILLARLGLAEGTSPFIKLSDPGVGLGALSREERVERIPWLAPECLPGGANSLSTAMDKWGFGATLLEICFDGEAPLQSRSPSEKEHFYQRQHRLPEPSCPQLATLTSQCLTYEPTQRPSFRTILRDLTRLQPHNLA

Compound | pKd (TYK2 JH2) | pIC50 [1]
CNc1ncc(-c2nc3cc(N4CCC(F)(F)C4)ccc3o2)c2cc(NC(=O)C3CC3)ncc12 [Example 942, N-(5-(5-(3,3-difluoropyrrolidin-1-yl)benzo[d]oxazol-2-yl)-8-(methylamino)-2,7-naphthyridin-3-yl)cyclopropanecarboxamide] | ≥ 7.00 | ≥ 6.30
CNc1ncc(-c2nc3cc(N4CCC(F)C4)ccc3o2)c2cc(NC(=O)C3CC3)ncc12 (stereo not shown) [Example 943, N-(5-(5-(3-fluoropyrrolidin-1-yl)benzo[d]oxazol-2-yl)-8-(methylamino)-2,7-naphthyridin-3-yl)cyclopropanecarboxamide] | ≥ 7.00 | ≥ 6.30
CNc1ncc(-c2nc3cc([C@]45C[C@H](CO4)C5)ccc3o2)c2cc(NC(=O)C3CC3)ncc12 [Example 946, N-(5-(5-((1s,4s)-2-oxabicyclo[2.1.1]hexan-1-yl)benzo[d]oxazol-2-yl)-8-(methylamino)-2,7-naphthyridin-3-yl)cyclopropanecarboxamide] | ≥ 7.00 | ≥ 6.30
CNc1ncc(-c2nc3cc(C4(C)CCCO4)ccc3o2)c2cc(NC(=O)C3CC3)ncc12 (stereo not shown) [Example 947, N-(8-(methylamino)-5-(5-(2-methyltetrahydrofuran-2-yl)benzo[d]oxazol-2-yl)-2,7-naphthyridin-3-yl)cyclopropanecarboxamide] | ≥ 7.00 | ≥ 6.30
CNc1ncc(-c2nc3cc([C@]4(C)CCCO4)ccc3o2)c2cc(NC(=O)C3CC3)ncc12 [Example 948, (S)—N-(8-(methylamino)-5-(5-(2-methyltetrahydrofuran-2-yl)benzo[d]oxazol-2-yl)-2,7-naphthyridin-3-yl)cyclopropanecarboxamide] | ≥ 7.00 | ≥ 6.30
CNc1ncc(C#Cc2ncccn2)c2cc(NC(=O)C3CC3)ncc12 [Example 950, N-(8-(methylamino)-5-(pyrimidin-2-ylethynyl)-2,7-naphthyridin-3-yl)cyclopropanecarboxamide] | ≥ 7.00 | ≥ 6.30
CNc1ncc(C#Cc2ccc(N3CCOCC3)cn2)c2cc(NC(=O)C3CC3)ncc12 [Example 951, N-(8-(methylamino)-5-((5-morpholinopyridin-2-yl)ethynyl)-2,7-naphthyridin-3-yl)cyclopropanecarboxamide] | ≥ 7.00 | ≥ 6.30
CNc1ncc(C#Cc2ccc(-n3ccnn3)cn2)c2cc(NC(=O)C3CC3)ncc12 [Example 952, N-(5-((5-(1H-1,2,3-triazol-1-yl)pyridin-2-yl)ethynyl)-8-(methylamino)-2,7-naphthyridin-3-yl)cyclopropanecarboxamide] | ≥ 7.00 | ≥ 6.30
CNc1ncc(C#Cc2ccc(-n3nccn3)cn2)c2cc(NC(=O)C3CC3)ncc12 [Example 953, N-(5-((5-(2H-1,2,3-triazol-2-yl)pyridin-2-yl)ethynyl)-8-(methylamino)-2,7-naphthyridin-3-yl)cyclopropanecarboxamide] | ≥ 7.00 | ≥ 6.30
CNc1ncc(C#Cc2ccc(-n3cccn3)cn2)c2cc(NC(=O)C3CC3)ncc12 [Example 954, N-(5-((5-(1H-pyrazol-1-yl)pyridin-2-yl)ethynyl)-8-(methylamino)-2,7-naphthyridin-3-yl)cyclopropanecarboxamide] | ≥ 7.00 | ≥ 6.30
CNc1ncc(C#Cc2ncccc2C2CC2)c2cc(NC(=O)C3CC3)ncc12 [Example 955, N-(5-((3-cyclopropylpyridin-2-yl)ethynyl)-8-(methylamino)-2,7-naphthyridin-3-yl)cyclopropanecarboxamide] | ≥ 7.00 | ≥ 6.30
CNc1ncc(C#Cc2ccc3c(c2)CCNC3)c2cc(NC(=O)C3CC3)ncc12 [Example 956, N-(8-(methylamino)-5-((1,2,3,4-tetrahydroisoquinolin-6-yl)ethynyl)-2,7-naphthyridin-3-yl)cyclopropanecarboxamide] | ≥ 7.00 | ≥ 6.30
CNc1ncc(C#Cc2ccc(-c3cnn(C)n3)cc2)c2cc(NC(=O)C3CC3)ncc12 [Example 957, N-(5-((4-(2-methyl-2H-1,2,3-triazol-4-yl)phenyl)ethynyl)-8-(methylamino)-2,7-naphthyridin-3-yl)cyclopropanecarboxamide] | ≥ 7.00 | ≥ 6.30
CNc1ncc(C#CC23CC(OC)(C2)C3)c2cc(NC(=O)C3CC3)ncc12 [Example 958, N-(5-((3-methoxybicyclo[1.1.1]pentan-1-yl)ethynyl)-8-(methylamino)-2,7-naphthyridin-3-yl)cyclopropanecarboxamide] | ≥ 7.00 | ≥ 6.30
CNc1ncc(C#Cc2sc(C(C)=O)cc2C)c2cc(NC(=O)C3CC3)ncc12 [Example 959, N-(5-((5-acetyl-3-methylthiophen-2-yl)ethynyl)-8-(methylamino)-2,7-naphthyridin-3-yl)cyclopropanecarboxamide] | ≥ 7.00 | ≥ 6.30
CNc1ncc(C#Cc2sccc2CO)c2cc(NC(=O)C3CC3)ncc12 [Example 960, N-(5-((3-(hydroxymethyl)thiophen-2-yl)ethynyl)-8-(methylamino)-2,7-naphthyridin-3-yl)cyclopropanecarboxamide] | ≥ 7.00 | ≥ 6.30
CCc1nc(C)c(C#Cc2cnc(NC)c3cnc(NC(=O)C4CC4)cc23)s1 [Example 961, N-(5-((2-ethyl-4-methylthiazol-5-yl)ethynyl)-8-(methylamino)-2,7-naphthyridin-3-yl)cyclopropanecarboxamide] | ≥ 7.00 | ≥ 6.30
CNc1ncc(C#Cc2ccc(-n3c(=O)ccn3C)cc2)c2cc(NC(=O)C3CC3)ncc12 [Example 962, N-[8-(methylamino)-5-[2-[4-(2-methyl-5-oxo-pyrazol-1-yl)phenyl]ethynyl]-2,7-naphthyridin-3-yl]cyclopropanecarboxamide] | ≥ 7.00 | ≥ 6.30
CNc1ncc(C#Cc2ncc(OC)cc2CF)c2cc(NC(=O)C3CC3)ncc12 [Example 963, N-[5-[2-[3-(fluoromethyl)-5-methoxy-2-pyridyl]ethynyl]-8-(methylamino)-2,7-naphthyridin-3-yl]cyclopropanecarboxamide] | ≥ 7.00 | ≥ 6.30
CNc1ncc(C#Cc2ccc(COC)cn2)c2cc(NC(=O)C3CC3)ncc12 [Example 964, N-[5-[2-[5-(methoxymethyl)-2-pyridyl]ethynyl]-8-(methylamino)-2,7-naphthyridin-3-yl]cyclopropanecarboxamide] | ≥ 7.00 | ≥ 6.30
CNc1ncc(C#Cc2ccc(OC)cc2CO)c2cc(NC(=O)C3CC3)ncc12 [Example 965, N-[5-[2-[2-(hydroxymethyl)-4-methoxy-phenyl]ethynyl]-8-(methylamino)-2,7-naphthyridin-3-yl]cyclopropanecarboxamide] | ≥ 7.00 | ≥ 6.30
CNc1ncc(C#Cc2ccc(Oc3nccn3C)cc2)c2cc(NC(=O)C3CC3)ncc12 [Example 966, N-(5-((4-((1-methyl-1H-imidazol-2-yl)oxy)phenyl)ethynyl)-8-(methylamino)-2,7-naphthyridin-3-yl)cyclopropanecarboxamide] | ≥ 7.00 | ≥ 6.30
CNc1ncc(C#Cc2ncc(OC)cc2CO)c2cc(NC(=O)C3CC3)ncc12 [Example 967, N-[5-[2-[3-(hydroxymethyl)-5-methoxy-2-pyridyl]ethynyl]-8-(methylamino)-2,7-naphthyridin-3-yl]cyclopropanecarboxamide] | ≥ 7.00 | ≥ 6.30

Source: patent publication US20240025906A1 (NEURON23, INC., priority 2022, published 2024)
